Results on 21 molecules are retold here after patent USRE47689E1, “Compounds for treating spinal muscular atrophy” (PTC Therapeutics, Inc., priority 2011, dated 2019).

The subject of data set [1] is SMN2 minigene (full length SMN2 minigene mRNA containing SMN2 exon 7). The experiment in a line: SMN2 minigene mRNA splicing RT-qPCR assay in cultured cells. Conditions: Homo sapiens, HEK293-H, read-out: EC1.5x for production of full length SMN2 mRNA. Type of data set: cell-based, human. In short, it runs like this:
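HEK293H cells stably carrying the SMN2-A minigene treated 24 h at 37° C with compound (DMSO, 200× stock), then lysed. Multiplex RT-qPCR (SMN primers 0.4 μM final; 40 cycles) measures full-length exon 7-containing minigene mRNA, normalized to GAPDH and to vehicle; EC1.5x derived and binned by stars.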

Data set [2] relates to Smn protein. Kind of data set: Smn protein assay in cultured cells (SMN HTRF). Type of data set: cell-based, human. Conditions: 48 hours; for maximum fold (Fold) increase of Smn protein: SMA patient fibroblast cells, 7-point concentration data, fold increase relative to vehicle control (SMN HTRF); for EC1.5x (concentration giving 1.5-fold Smn protein increase): SMA Type 1 patient fibroblast cells (GM03813), 7-point concentration curve, SMN HTRF, concentration producing 1.5 times Smn protein vs DMSO vehicle control, read-out: EC1.5x for Smn protein expression. The procedure, abridged:
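Lysates in RIPA with protease inhibitors are incubated overnight at room temperature with HTRF anti-SMN antibodies. EC1.5x is derived from fold increase in ΔF over vehicle.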

Where [3] appears, read: HEK293H cells stably transfected with SMN2-A minigene, 24 hours, 7-point concentration curve, 1.5-fold relative to vehicle-treated cells.

Read-outs that look alike come from different tables or passages of the source.

For the molecule `Cc1cn2cc(-c3cc4ccc(CCCNCc5ccccc5)cc4oc3=O)nc2c(C)n1` [Cpd 933, 7-[3-(benzylamino)propyl]-3-(6,8-dimethylimidazo[1,2-a]pyrazin-2-yl)-2H-chromen-2-one], the melting point fell in the range of 143 to 147 °C. In addition, in data set [1] (setting [3]), the EC (1.5-fold) was under 0.1 µM. The “maximum fold (Fold) increase of Smn protein” value (“maximum fold (Fold) increase” below) in data set [2] is recorded as “* (maximum fold increase of ≤1.2)”.

As for `Cc1csc(-c2cc3ccc(N4CCN[C@@H](C)C4)cc3oc2=O)n1` [Cpd 283, 7-[(3S)-3-methylpiperazin-1-yl]-3-(4-methyl-1,3-thiazol-2-yl)-2H-chromen-2-one], the melting point fell in the range of 194 to 199 °C. In addition, the EC (1.5-fold) in data set [1] (24 h) lay in the range of 0.3 to 1 µM. The “maximum fold (Fold) increase” value in data set [2] was “* (maximum fold increase of ≤1.2)”.

For `Cc1nccn2cc(-c3cc4ccc(N5CCCNCC5)cc4oc3=O)cc12` [Compound 587, 7-(1,4-diazepan-1-yl)-3-(1-methylpyrrolo[1,2-a]pyrazin-7-yl)-2H-chromen-2-one], the melting point lay in the range of 210 to 213 °C. For the same molecule, the EC (1.5-fold) in data set [1] (setting [3]) is under 0.1 µM. Besides, in data set [2], the EC1.5x (concentration giving 1.5-fold Smn protein increase) is under 300 nM; the “maximum fold (Fold) increase” value is “**** (fold increase between >1.5 and ≤1.65)”.

Consider `Cc1cn2cc(-c3cc4ccc(N5CCC(N(C)C)C5)cc4oc3=O)nc2s1` (stereo not drawn) [Compound 154, 7-[3-(dimethylamino)pyrrolidin-1-yl]-3-(2-methylimidazo[2,1-b][1,3]thiazol-6-yl)-2H-chromen-2-one], for which the melting point was in the range of 180 to 183 °C. For the same molecule, in data set [1] (setting [3]), the EC (1.5-fold) lay in the range of 3 to 30 µM. Moreover, the “maximum fold (Fold) increase” value in data set [2] is listed as “* (maximum fold increase of ≤1.2)”.

In turn, `Cc1cn2cc(-c3cc4ccc(N5CCN[C@H](C)C5)cc4oc3=O)nc2s1` [Compound 231, 3-(2-methylimidazo[2,1-b][1,3]thiazol-6-yl)-7-[(3R)-3-methylpiperazin-1-yl]-2H-chromen-2-one] came in with a melting point of 178 to 181 °C. For the same molecule, in data set [1] (setting [3]), the EC (1.5-fold) was 0.3 to 1 µM. In data set [2], the EC1.5x (concentration giving 1.5-fold Smn protein increase) lay within 3000 to 10000 nM; the “maximum fold (Fold) increase” value was “** (fold increase between >1.2 and ≤1.35)”.

The molecule `CN1CCCN(c2ccc3cc(-c4cn5cc(F)ccc5n4)c(=O)oc3c2)CC1` [Compound 294, 3-(6-fluoroimidazo[1,2-a]pyridin-2-yl)-7-(4-methyl-1,4-diazepan-1-yl)-2H-chromen-2-one] returned a melting point of 152 to 155 °C. Also, in data set [1] (setting [3]), the EC (1.5-fold) was 0.1 to 0.3 µM. In data set [2], the EC1.5x (concentration giving 1.5-fold Smn protein increase) lay within 1000 to 3000 nM; the “maximum fold (Fold) increase” value is “** (fold increase between >1.2 and ≤1.35)”.

On to `CCc1cc(-c2cc3ccc(CCCN(C)C)cc3oc2=O)cn2cc(C)nc12` [Compound 910, 7-[3-(dimethylamino)propyl]-3-(8-ethyl-2-methylimidazo[1,2-a]pyridin-6-yl)-2H-chromen-2-one], for which the melting point lay within 123 to 126 °C. In addition, in data set [1] (setting [3]), the EC (1.5-fold) is under 0.1 µM. For the same molecule, in data set [2], the EC1.5x (concentration giving 1.5-fold Smn protein increase) is under 300 nM and the “maximum fold (Fold) increase” value was “***** (fold increase >1.65)”.

Molecule `Cc1nccn2cc(-c3cc4ccc(N5CCCN(C)CC5)cc4oc3=O)cc12` [Compound 556, 7-(4-methyl-1,4-diazepan-1-yl)-3-(1-methylpyrrolo[1,2-a]pyrazin-7-yl)-2H-chromen-2-one] registered a melting point of 125 to 128 °C. Moreover, in data set [1] (setting [3]), the EC (1.5-fold) is 0.1 to 0.3 µM. Moreover, in data set [2], the EC1.5x (concentration giving 1.5-fold Smn protein increase) fell in the range of 300 to 1000 nM; the “maximum fold (Fold) increase” value was “*** (fold increase between >1.35 and ≤1.5)”.

In turn, `CCN1CCN(c2ccc3cc(-c4cn5ccsc5n4)c(=O)oc3c2)CC1` [Compound 201, 7-(4-ethylpiperazin-1-yl)-3-(imidazo[2,1-b][1,3]thiazol-6-yl)-2H-chromen-2-one] showed a melting point of 202 to 205 °C. The EC (1.5-fold) in data set [1] (setting [3]) was 0.3 to 1 µM. The “maximum fold (Fold) increase” value in data set [2] is “** (fold increase between >1.2 and ≤1.35)”.

`Cc1cn2cc(-c3cc4ccc(N5C[C@@H](C)N[C@@H](C)C5)cc4oc3=O)nc2cn1` [Compound 476, 7-[(3R,5S)-3,5-dimethylpiperazin-1-yl]-3-(6-methylimidazo[1,2-a]pyrazin-2-yl)-2H-chromen-2-one] registered a melting point of 249 to 250 °C. The EC (1.5-fold) in data set [1] (setting [3]) was under 0.1 µM. Besides, in data set [2], the EC1.5x (concentration giving 1.5-fold Smn protein increase) is under 300 nM and the “maximum fold (Fold) increase” value is recorded as “***** (fold increase >1.65)”.

Take `Cc1cc(F)c2nc(-c3cc4ccc(N5CCNC6(CCC6)C5)cc4oc3=O)cn2c1` [Compound 598, 7-(5,8-diazaspiro[3.5]non-8-yl)-3-(8-fluoro-6-methylimidazo[1,2-a]pyridin-2-yl)-2H-chromen-2-one]: the melting point lay within 244 to 254 °C. The EC (1.5-fold) in data set [1] (setting [3]) was 0.1 to 0.3 µM. Also, in data set [2], the “maximum fold (Fold) increase” value is “*** (fold increase between >1.35 and ≤1.5)”.

As to `O=c1oc2cc(N3CCN(CCO)CC3)ccc2cc1-c1cn2cc(Cl)cnc2n1` [Compound 347, 3-(6-chloroimidazo[1,2-a]pyrimidin-2-yl)-7-[4-(2-hydroxyethyl)piperazin-1-yl]-2H-chromen-2-one], the melting point fell in the range of 288 to 296 °C. In addition, the EC (1.5-fold) in data set [1] (setting [3]) lay in the range of 3 to 30 µM. Moreover, the “maximum fold (Fold) increase” value in data set [2] is on record as “* (maximum fold increase of ≤1.2)”.

Regarding `CNCCCCc1ccc2cc(-c3cn4cc(C)nc(C)c4n3)c(=O)oc2c1` [Compound 952, 3-(6,8-dimethylimidazo[1,2-a]pyrazin-2-yl)-7-[4-(methylamino)butyl]-2H-chromen-2-one], the melting point lay within 180 to 184 °C. For the same molecule, the EC (1.5-fold) in data set [1] (setting [3]) was under 0.1 µM. In data set [2], the EC1.5x (concentration giving 1.5-fold Smn protein increase) was under 300 nM and the “maximum fold (Fold) increase” value is reported as “***** (fold increase >1.65)”.

On to `C[C@H]1CN(c2ccc3cc(-c4ccccn4)c(=O)oc3c2)CCN1` [Compound 444, 7-[(3S)-3-methylpiperazin-1-yl]-3-(pyridin-2-yl)-2H-chromen-2-one], for which the melting point lay within 145 to 147 °C. Further, the EC (1.5-fold) in data set [1] (24 h) was in the range of 3 to 30 µM. Moreover, the “maximum fold (Fold) increase” value in data set [2] is listed as “* (maximum fold increase of ≤1.2)”.

The molecule `Cc1cn2cc(-c3cc4ccc(C5CCN(CCCF)CC5)cc4oc3=O)nc2c(C)n1` [Compound 906, 3-(6,8-dimethylimidazo[1,2-a]pyrazin-2-yl)-7-[1-(3-fluoropropyl)piperidin-4-yl]-2H-chromen-2-one] registered a melting point of 195 to 200 °C. For the same molecule, the EC (1.5-fold) in data set [1] (setting [3]) is under 0.1 µM. Also, in data set [2], the EC1.5x (concentration giving 1.5-fold Smn protein increase) was under 300 nM and the “maximum fold (Fold) increase” value was “***** (fold increase >1.65)”.

Take `Cc1ccc2oc(-c3cc4ccc(N5CCN6CCC[C@H]6C5)cc4oc3=O)cc2n1` [Compound 722, 7-[(8aS)-hexahydropyrrolo[1,2-a]pyrazin-2(1H)-yl]-3-(5-methylfuro[3,2-b]pyridin-2-yl)-2H-chromen-2-one]: the melting point fell in the range of 228 to 230 °C. Besides, the EC (1.5-fold) in data set [1] (setting [3]) lay within 1 to 3 µM. Besides, in data set [2], the “maximum fold (Fold) increase” value was “* (maximum fold increase of ≤1.2)”.

Take `Cn1cc2cc(-c3cc4ccc(C5CCN(CCO)CC5)cc4oc3=O)ccc2n1` [Compound 861, 7-[1-(2-hydroxyethyl)piperidin-4-yl]-3-(2-methyl-2H-indazol-5-yl)-2H-chromen-2-one]: the melting point fell in the range of 220 to 226 °C. The EC (1.5-fold) in data set [1] (setting [3]) is under 0.1 µM. In data set [2], the EC1.5x (concentration giving 1.5-fold Smn protein increase) is 300 to 1000 nM and the “maximum fold (Fold) increase” value is “***** (fold increase >1.65)”.

`COc1ccc(-c2cc3ccc(N4CCN[C@H](C)C4)cc3oc2=O)c(OC)c1` [Compound 466, 3-(2,4-dimethoxyphenyl)-7-[(3R)-3-methylpiperazin-1-yl]-2H-chromen-2-one]: the melting point was 101 to 103 °C. In data set [1] (setting [3]), the EC (1.5-fold) fell in the range of 3 to 30 µM. Also, the “maximum fold (Fold) increase” value in data set [2] is reported as “* (maximum fold increase of ≤1.2)”.

In turn, `O=c1oc2cc(O[C@@H]3CCNC3)ccc2cc1-c1nc2ccccc2s1` [Compound 55, 3-(1,3-benzothiazol-2-yl)-7-[(3R)-pyrrolidin-3-yloxy]-2H-chromen-2-one] returned a melting point of 205 to 211 °C. For the same molecule, the EC (1.5-fold) in data set [1] (setting [3]) is 1 to 3 µM. Also, in data set [2], the “maximum fold (Fold) increase” value was “* (maximum fold increase of ≤1.2)”.

`O=c1oc2cc(N3CCNCC3)ccc2cc1-c1cc(F)cc(F)c1` [Compound 291, 3-(3,5-difluorophenyl)-7-(piperazin-1-yl)-2H-chromen-2-one] registered a melting point of 202 to 206 °C. The EC (1.5-fold) in data set [1] (setting [3]) was 0.3 to 1 µM. For the same molecule, the “maximum fold (Fold) increase” value in data set [2] is reported as “* (maximum fold increase of ≤1.2)”.

As to `C[C@@H]1CN(c2ccc3cc(C(=O)Nc4ccccc4)c(=O)oc3c2)C[C@H](C)N1` [Compound 30, 7-[(3R,5S)-3,5-dimethylpiperazin-1-yl]-2-oxo-N-phenyl-2H-chromene-3-carboxamide], the melting point lay in the range of 231 to 233 °C. Also, the EC (1.5-fold) in data set [1] (setting [3]) lay within 1 to 3 µM. In addition, the “maximum fold (Fold) increase” value in data set [2] is “* (maximum fold increase of ≤1.2)”.
